# In PubChem BioAssay (NCI):
#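 All cell lines were grown in 96-well plates and treated with compound for 48 hours. At the GI50, growth is halved. Definition used: TGI = concentration required for complete inhibition of growth.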
# Experiments:
# Experiment in all cases: growth of human tumour cells (NCI), 48 h
# SF-268 CNS = system: SF-268 CNS
# SK-MEL-5 melanoma = system: SK-MEL-5 melanoma
# DU-145 prostate = system: DU-145 prostate
# BT-549 breast = system: BT-549 breast
# SR leukemia = system: SR leukemia
# NCI/ADR-RES ovarian = system: NCI/ADR-RES ovarian
# OVCAR-5 ovarian = system: OVCAR-5 ovarian
# MALME-3M melanoma = system: MALME-3M melanoma
# SF-539 CNS = system: SF-539 CNS
# SW-620 colon = system: SW-620 colon
# IGROV1 ovarian = system: IGROV1 ovarian
# COLO 205 colon = system: COLO 205 colon
# HS 578T breast = system: HS 578T breast
# HCT-15 colon = system: HCT-15 colon
# SN12C renal = system: SN12C renal
# UO-31 renal = system: UO-31 renal
# CCRF-CEM leukemia = system: CCRF-CEM leukemia
# T-47D breast = system: T-47D breast
# OVCAR-4 ovarian = system: OVCAR-4 ovarian
# HOP-62 NSCLC = system: HOP-62 NSCLC
# HL-60(TB) leukemia = system: HL-60(TB) leukemia
# NCI-H460 lung = system: NCI-H460 lung
# NCI-H522 lung = system: NCI-H522 lung
# EKVX NSCLC = system: EKVX NSCLC
# UACC-62 melanoma = system: UACC-62 melanoma
# TK-10 renal = system: TK-10 renal
# SF-295 CNS = system: SF-295 CNS
# RXF 393 renal = system: RXF 393 renal
# A498 renal = system: A498 renal
# ACHN renal = system: ACHN renal
# MOLT-4 leukemia = system: MOLT-4 leukemia
# SNB-19 CNS = system: SNB-19 CNS
# KM12 colon = system: KM12 colon
# 786-0 renal = system: 786-0 renal
# OVCAR-8 ovarian = system: OVCAR-8 ovarian
# CAKI-1 renal = system: CAKI-1 renal
# RPMI-8226 leukemia = system: RPMI-8226 leukemia
# SK-MEL-28 melanoma = system: SK-MEL-28 melanoma
# A549 NSCLC = system: A549 NSCLC
# U251 CNS = system: U251 CNS
# PC-3 prostate = system: PC-3 prostate
# NCI-H226 lung = system: NCI-H226 lung
# HCT-116 colon = system: HCT-116 colon
# SNB-75 CNS = system: SNB-75 CNS
# HT29 colon = system: HT29 colon
# MCF7 breast = system: MCF7 breast
# M14 melanoma = system: M14 melanoma
# UACC-257 melanoma = system: UACC-257 melanoma
# SK-OV-3 ovarian = system: SK-OV-3 ovarian
# MDA-MB-231 breast = system: MDA-MB-231 breast
# LOX IMVI melanoma = system: LOX IMVI melanoma
# HCC-2998 colon = system: HCC-2998 colon
# MDA-MB-435 = system: MDA-MB-435
# NCI-H23 lung = system: NCI-H23 lung
# SK-MEL-2 melanoma = system: SK-MEL-2 melanoma
# K-562 leukemia = system: K-562 leukemia
compound,measurement,setting,value
O=C(N/N=C\c1ccc(Cl)cc1)c1ccc2nc(-c3ccc(Br)cc3)[nH]c2c1,GI50,SF-268 CNS,2.56 µM
same,TGI,SF-268 CNS,6.87 µM
same,GI50,SK-MEL-5 melanoma,1.85 µM
same,TGI,SK-MEL-5 melanoma,3.63 µM
same,GI50,DU-145 prostate,1.98 µM
same,TGI,DU-145 prostate,4.18 µM
same,GI50,BT-549 breast,1.87 µM
same,TGI,BT-549 breast,5.54 µM
same,GI50,SR leukemia,0.895 µM
same,TGI,SR leukemia,3.39 µM
same,GI50,NCI/ADR-RES ovarian,2.44 µM
same,TGI,NCI/ADR-RES ovarian,8.01 µM
same,GI50,OVCAR-5 ovarian,1.99 µM
same,TGI,OVCAR-5 ovarian,4.26 µM
same,GI50,MALME-3M melanoma,1.68 µM
same,TGI,MALME-3M melanoma,3.22 µM
same,GI50,SF-539 CNS,1.72 µM
same,TGI,SF-539 CNS,3.24 µM
same,GI50,SW-620 colon,1.6 µM
same,TGI,SW-620 colon,3.26 µM
same,GI50,IGROV1 ovarian,1.58 µM
same,TGI,IGROV1 ovarian,3.41 µM
same,GI50,COLO 205 colon,1.43 µM
same,TGI,COLO 205 colon,2.86 µM
same,GI50,HS 578T breast,2.19 µM
same,TGI,HS 578T breast,5.27 µM
same,GI50,HCT-15 colon,1.52 µM
same,TGI,HCT-15 colon,3.33 µM
same,GI50,SN12C renal,1.76 µM
same,TGI,SN12C renal,3.49 µM
same,GI50,UO-31 renal,1.45 µM
same,TGI,UO-31 renal,2.86 µM
same,GI50,CCRF-CEM leukemia,1.9 µM
same,TGI,CCRF-CEM leukemia,4.73 µM
same,GI50,T-47D breast,1.58 µM
same,TGI,T-47D breast,3.25 µM
same,GI50,OVCAR-4 ovarian,2.07 µM
same,TGI,OVCAR-4 ovarian,4.83 µM
same,GI50,HOP-62 NSCLC,1.64 µM
same,TGI,HOP-62 NSCLC,3.2 µM
same,GI50,HL-60(TB) leukemia,2.04 µM
same,TGI,HL-60(TB) leukemia,5.03 µM
same,GI50,NCI-H460 lung,0.601 µM
same,TGI,NCI-H460 lung,1.94 µM
same,GI50,NCI-H522 lung,1.63 µM
same,TGI,NCI-H522 lung,3.38 µM
same,GI50,EKVX NSCLC,2.03 µM
same,TGI,EKVX NSCLC,4.28 µM
same,GI50,UACC-62 melanoma,1.85 µM
same,TGI,UACC-62 melanoma,3.85 µM
same,GI50,TK-10 renal,2.07 µM
same,TGI,TK-10 renal,3.89 µM
same,GI50,SF-295 CNS,2.07 µM
same,TGI,SF-295 CNS,4.59 µM
same,GI50,RXF 393 renal,1.5 µM
same,TGI,RXF 393 renal,3.18 µM
same,GI50,A498 renal,1.67 µM
same,TGI,A498 renal,3.68 µM
same,GI50,ACHN renal,1.75 µM
same,TGI,ACHN renal,3.17 µM
same,GI50,MOLT-4 leukemia,1.62 µM
same,TGI,MOLT-4 leukemia,4.29 µM
same,GI50,SNB-19 CNS,2.11 µM
same,TGI,SNB-19 CNS,4.91 µM
same,GI50,KM12 colon,1.86 µM
same,TGI,KM12 colon,4.16 µM
same,GI50,786-0 renal,1.76 µM
same,TGI,786-0 renal,3.26 µM
same,GI50,OVCAR-8 ovarian,1.49 µM
same,TGI,OVCAR-8 ovarian,2.88 µM
same,GI50,CAKI-1 renal,1.6 µM
same,TGI,CAKI-1 renal,3.1 µM
same,GI50,RPMI-8226 leukemia,1.6 µM
same,TGI,RPMI-8226 leukemia,3.89 µM
same,GI50,SK-MEL-28 melanoma,1.73 µM
same,TGI,SK-MEL-28 melanoma,3.26 µM
same,GI50,A549 NSCLC,1.75 µM
same,TGI,A549 NSCLC,3.3 µM
same,GI50,U251 CNS,1.78 µM
same,TGI,U251 CNS,3.18 µM
same,GI50,PC-3 prostate,1.58 µM
same,TGI,PC-3 prostate,2.99 µM
same,GI50,NCI-H226 lung,4.96 µM
same,TGI,NCI-H226 lung,24 µM
same,GI50,HCT-116 colon,1.49 µM
same,TGI,HCT-116 colon,2.99 µM
same,GI50,SNB-75 CNS,1.83 µM
same,TGI,SNB-75 CNS,4.01 µM
same,GI50,HT29 colon,1.04 µM
same,TGI,HT29 colon,2.38 µM
same,GI50,MCF7 breast,1.01 µM
same,TGI,MCF7 breast,2.46 µM
same,GI50,M14 melanoma,1.92 µM
same,TGI,M14 melanoma,3.93 µM
same,GI50,UACC-257 melanoma,1.6 µM
same,TGI,UACC-257 melanoma,3.1 µM
same,GI50,SK-OV-3 ovarian,1.51 µM
same,TGI,SK-OV-3 ovarian,3.87 µM
same,GI50,MDA-MB-231 breast,1.9 µM
same,TGI,MDA-MB-231 breast,3.89 µM
same,GI50,LOX IMVI melanoma,1.49 µM
same,TGI,LOX IMVI melanoma,3.09 µM
same,GI50,HCC-2998 colon,1.83 µM
same,TGI,HCC-2998 colon,3.61 µM
same,GI50,MDA-MB-435,1.52 µM
same,TGI,MDA-MB-435,3.15 µM
same,GI50,NCI-H23 lung,1.86 µM
same,TGI,NCI-H23 lung,4.02 µM
Nc1cc(-c2c[nH]c3ccc(Br)cc23)nc2cc(-c3c[nH]c4ccc(Br)cc34)nn12,GI50,SK-MEL-5 melanoma,1.7 µM
same,TGI,SK-MEL-5 melanoma,3.18 µM
same,GI50,DU-145 prostate,1.72 µM
same,TGI,DU-145 prostate,3.23 µM
same,GI50,NCI/ADR-RES ovarian,2.5 µM
same,TGI,NCI/ADR-RES ovarian,6.14 µM
same,GI50,OVCAR-5 ovarian,1.53 µM
same,TGI,OVCAR-5 ovarian,3.11 µM
same,GI50,SK-MEL-2 melanoma,1.67 µM
same,TGI,SK-MEL-2 melanoma,3.27 µM
same,GI50,MALME-3M melanoma,1.93 µM
same,TGI,MALME-3M melanoma,4.08 µM
same,GI50,SF-539 CNS,1.46 µM
same,TGI,SF-539 CNS,2.92 µM
same,GI50,COLO 205 colon,1.76 µM
same,TGI,COLO 205 colon,3.23 µM
same,GI50,HS 578T breast,2.3 µM
same,TGI,HS 578T breast,7.54 µM
same,GI50,K-562 leukemia,2.81 µM
same,TGI,K-562 leukemia,> 100 µM
same,GI50,HCT-15 colon,1.36 µM
same,TGI,HCT-15 colon,3.18 µM
same,GI50,SN12C renal,1.84 µM
same,TGI,SN12C renal,3.64 µM
same,GI50,UO-31 renal,1.47 µM
same,TGI,UO-31 renal,2.79 µM
same,GI50,CCRF-CEM leukemia,3.21 µM
same,TGI,CCRF-CEM leukemia,> 100 µM
same,GI50,OVCAR-4 ovarian,2.03 µM
same,TGI,OVCAR-4 ovarian,5.25 µM
same,GI50,UACC-62 melanoma,1.48 µM
same,TGI,UACC-62 melanoma,3.05 µM
same,GI50,TK-10 renal,1.8 µM
same,TGI,TK-10 renal,3.39 µM
same,GI50,SF-295 CNS,1.89 µM
same,TGI,SF-295 CNS,3.57 µM
same,GI50,RXF 393 renal,1.83 µM
same,TGI,RXF 393 renal,3.54 µM
same,GI50,A498 renal,1.57 µM
same,TGI,A498 renal,4.07 µM
same,GI50,ACHN renal,1.56 µM
same,TGI,ACHN renal,2.96 µM
same,GI50,KM12 colon,1.48 µM
same,TGI,KM12 colon,2.96 µM
same,GI50,CAKI-1 renal,1.43 µM
same,TGI,CAKI-1 renal,3.15 µM
same,GI50,RPMI-8226 leukemia,3.17 µM
same,TGI,RPMI-8226 leukemia,> 100 µM
same,GI50,SK-MEL-28 melanoma,1.62 µM
same,TGI,SK-MEL-28 melanoma,3.08 µM
same,GI50,NCI-H226 lung,2.14 µM
same,TGI,NCI-H226 lung,6.11 µM
same,GI50,SNB-75 CNS,1.17 µM
same,TGI,SNB-75 CNS,3.77 µM
same,GI50,HT29 colon,1.71 µM
same,TGI,HT29 colon,3.15 µM
same,GI50,UACC-257 melanoma,1.63 µM
same,TGI,UACC-257 melanoma,3.2 µM
same,GI50,SK-OV-3 ovarian,1.71 µM
same,TGI,SK-OV-3 ovarian,3.44 µM
same,GI50,MDA-MB-231 breast,1.89 µM
same,TGI,MDA-MB-231 breast,3.79 µM
same,GI50,HCC-2998 colon,1.8 µM
same,TGI,HCC-2998 colon,3.34 µM
same,GI50,MDA-MB-435,1.71 µM
same,TGI,MDA-MB-435,3.25 µM
